We go through four molecules from patent publication US7256206B2, “Bicyclic compounds and compositions” (IRM LLC, priority 2003, dated 2007).

The target of data set [1] is T1, human EDG-1 (Homo sapiens, UniProt P21453).
T1 construct: c-myc (N); expressed in transfected cells; membrane protein suspensions
As to the kind of experiment: EDG-1 (S1P1) GTP [γ-35S] binding assay (SPA). In kind it is biochemical. The note with it: for EC50: GTP [γ-35S] binding, CHO membranes. The method, then: (§1) A. In vitro: a Scintillation Proximity Assay (SPA) for Measuring GTP [γ-^35S] Binding to Membranes Prepared from CHO Cells Expressing Human EDG/S1P Receptors
EDG-1 (S1P1) GTP [γ-^35S] binding assay: Membrane protein suspensions are prepared from CHO cell clones stably expressing a human EDG-1 N-terminal c-myc tag. Solutions of test compounds ranging from 10 mM to 0.01 mM are prepared in DMSO/50 mM HCl and then diluted into assay buffer (20 mM HEPES, pH7.4, 100 mM NaCl, 10 mM MgCl2, 0.1% fat free BSA). Assay buffer containing […] is mixed with wheat germ agglutinin-coated SPA-beads (1 mg/well) followed by the addition of human EDG-1 membrane protein suspension (10 μg/well) and test compound. The bead/membrane/compound assay components are then mixed for 10–15 minutes on a shaker at room temperature. GTP [γ-^35S] (200 pM) and bead/membrane/compound assay mixture are added to individual wells of a 96 well Optiplate™ (final volume 225 μl/well), sealed and incubated at room temperature for 110 to 120 minutes under constant shaking. After centrifugation (2000 rpm, 10 minutes) luminescence is measured with a TopCount™ instrument.
(§2) EC50 values are obtained by fitting the GTP [γ-^35S] binding curves (raw data) with the dose response curve-fitting tool of ORIGIN V. 6.1. Basal binding (no compound) and the highest stimulation of GTP [γ-^35S] binding achieved by an agonist are used as the fitting range. Seven different concentrations are used to generate a concentration response curve (using two or three data points per concentration).

Data set [2] addresses T2, EDG-3 (Homo sapiens, UniProt Q99500).
T2 construct: c-myc (print says 'tagged or untagged'; not resolved for this receptor) (C); expressed in transfected cells; membranes
As to the kind of experiment: EDG-3 GTP [γ-35S] binding assay. In kind it is biochemical. The note with it: CHO membranes.
Text: as §1, §2
(§3) Concentrations of EDG receptor expressing membranes range between 13–19 μg per well.

Data set [3] deals with T3, EDG-5 (Homo sapiens, UniProt O95136).
T3 construct: c-myc (print says 'tagged or untagged'; not resolved for this receptor) (C); expressed in transfected cells; membranes
As to the kind of experiment: EDG-5 GTP [γ-35S] binding assay. Type of data set: biochemical. The note with it: CHO membranes.
Text: as §1, §2, §3

Data set [4] concerns the target T4, EDG-6 (Homo sapiens, UniProt O95977).
T4 construct: c-myc (print says 'tagged or untagged'; not resolved for this receptor) (C); expressed in transfected cells; membranes
T4 sequence (O95977 1-384): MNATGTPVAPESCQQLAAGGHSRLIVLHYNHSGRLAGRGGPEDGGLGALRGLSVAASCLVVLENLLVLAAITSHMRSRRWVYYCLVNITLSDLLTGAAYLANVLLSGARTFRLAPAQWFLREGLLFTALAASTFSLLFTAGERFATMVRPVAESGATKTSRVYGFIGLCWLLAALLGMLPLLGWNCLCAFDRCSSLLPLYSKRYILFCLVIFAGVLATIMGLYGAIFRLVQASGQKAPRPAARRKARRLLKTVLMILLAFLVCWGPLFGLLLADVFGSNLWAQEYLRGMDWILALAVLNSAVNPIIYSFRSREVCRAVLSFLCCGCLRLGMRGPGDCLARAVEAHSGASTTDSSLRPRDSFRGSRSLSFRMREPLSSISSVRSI
As to the kind of experiment: EDG-6 GTP [γ-35S] binding assay. To be noted: CHO membranes. In kind it is biochemical.
Text: as §1, §2, §3

The target in data set [5] is T5, EDG-8 (Homo sapiens, UniProt Q9H228).
T5 construct: c-myc (print says 'tagged or untagged'; not resolved for this receptor) (C); expressed in transfected cells; membranes
Kind of data set: EDG-8 GTP [γ-35S] binding assay (RH7777 membranes). Type of data set: biochemical.

The subject of data set [6] is circulating lymphocytes. Kind of data set: Measurement of blood lymphocyte depletion. Type of data set: in vivo, Mice (C57bl/6 male). To be noted: mice, blood collected 18 hours after administration, dose for 50% blood lymphocyte depletion; for ED50: Mus musculus, Lymphocyte, ip, 18 h. The method, then: (§4) C. In Vivo: Screening Assays for Measurement of Blood Lymphocyte Depletion and Assessment of Heart Effect
Measurement of circulating lymphocytes: Compounds are dissolved in DMSO and further diluted with deionized water. Mice (C57bl/6 male, 6–10 week-old) are administered 20 μg of compound (diluted in 200 μl water, 4% DMSO) via intra-peritoneal (IP) injection under short isoflurane anesthesia. Water (200 μl), 4% DMSO, and FTY720 (10 μg) are included as negative and positive controls, respectively.
Blood is collected from the retro-orbital sinus 18 hours after drug administration under short isoflurane anesthesia. Whole blood samples are subjected to hematology analysis. Peripheral lymphocyte counts are determined using an automated analyzer. Subpopulations of peripheral blood lymphocytes are stained by fluorochrome-conjugated specific antibodies and analyzed using a fluorescent activating cell sorter (Facscalibur). Two mice are used to assess the lymphocyte depletion activity of each compound screened. The result is an ED50, which is defined as the effective dose required displaying 50% of blood lymphocyte depletion.

Data set [7] can be described thus: Assessment of heart effect (AnonyMOUSE ECG screening). Type of data set: in vivo, mice (C57bl/6 male). To be noted: ECG before and after compound, 90 μg IP. The method, then:
as §4
Assessment of Heart Effect: The effects of compounds on cardiac function are monitored using the AnonyMOUSE ECG screening system. Electrocardiograms are recorded in conscious mice (C57bl/6 male, 6–10 week-old) before and after compound administration. ECG signals are then processed and analyzed using the e-MOUSE software. 90 μg of compound further diluted in 200 μl water, 15% DMSO are injected IP. Four mice are used to assess the heart effect of each compound.

T1 sequence (P21453 whole entry): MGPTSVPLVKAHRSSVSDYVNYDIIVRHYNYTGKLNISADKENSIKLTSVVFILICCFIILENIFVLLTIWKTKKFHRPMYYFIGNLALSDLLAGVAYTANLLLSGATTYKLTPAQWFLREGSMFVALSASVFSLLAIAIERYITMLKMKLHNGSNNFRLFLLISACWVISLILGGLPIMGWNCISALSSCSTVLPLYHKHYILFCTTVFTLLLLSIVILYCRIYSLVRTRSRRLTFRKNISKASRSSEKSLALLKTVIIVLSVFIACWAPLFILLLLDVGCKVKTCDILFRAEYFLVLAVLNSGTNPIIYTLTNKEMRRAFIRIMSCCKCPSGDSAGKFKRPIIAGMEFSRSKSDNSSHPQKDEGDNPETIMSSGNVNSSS
T5 sequence (Q9H228 whole entry): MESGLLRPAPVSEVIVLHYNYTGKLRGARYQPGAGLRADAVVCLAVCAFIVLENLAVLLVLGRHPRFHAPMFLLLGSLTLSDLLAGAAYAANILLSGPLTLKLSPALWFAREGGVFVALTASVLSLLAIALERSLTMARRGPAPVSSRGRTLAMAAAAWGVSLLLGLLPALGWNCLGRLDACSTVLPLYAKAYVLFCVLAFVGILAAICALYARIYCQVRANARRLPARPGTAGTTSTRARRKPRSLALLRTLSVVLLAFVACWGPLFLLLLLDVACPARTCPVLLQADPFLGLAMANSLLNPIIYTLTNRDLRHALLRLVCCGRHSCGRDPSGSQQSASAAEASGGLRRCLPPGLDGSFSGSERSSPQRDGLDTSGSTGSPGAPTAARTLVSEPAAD
T3 sequence (O95136 whole entry): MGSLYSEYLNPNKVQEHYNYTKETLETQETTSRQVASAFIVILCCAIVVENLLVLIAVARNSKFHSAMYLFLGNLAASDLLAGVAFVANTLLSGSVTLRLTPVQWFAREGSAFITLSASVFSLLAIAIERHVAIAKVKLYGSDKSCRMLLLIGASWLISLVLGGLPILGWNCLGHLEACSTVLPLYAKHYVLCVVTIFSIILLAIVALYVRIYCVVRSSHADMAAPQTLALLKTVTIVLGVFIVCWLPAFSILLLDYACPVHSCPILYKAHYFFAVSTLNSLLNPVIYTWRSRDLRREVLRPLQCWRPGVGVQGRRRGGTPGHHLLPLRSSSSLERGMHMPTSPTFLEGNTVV
T2 sequence (Q99500 whole entry): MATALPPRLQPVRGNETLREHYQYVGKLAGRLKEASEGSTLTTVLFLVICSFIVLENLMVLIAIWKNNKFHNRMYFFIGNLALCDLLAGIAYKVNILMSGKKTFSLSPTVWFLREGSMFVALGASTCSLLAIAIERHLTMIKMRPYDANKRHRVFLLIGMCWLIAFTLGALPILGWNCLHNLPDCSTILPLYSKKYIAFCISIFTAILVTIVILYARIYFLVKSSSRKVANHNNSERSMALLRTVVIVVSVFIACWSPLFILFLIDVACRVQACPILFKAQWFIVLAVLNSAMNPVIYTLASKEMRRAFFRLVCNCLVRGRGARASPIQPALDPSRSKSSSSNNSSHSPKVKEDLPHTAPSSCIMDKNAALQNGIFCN

What is called EC50 is the midpoint of the concentration-response curve. Read a high EC50 as a need for much substance. Usually ED50 stands for the dose that gives a 50% effect, or the effect in half of the subjects. Low readings indicate greater potency, high ones weaker potency. `C/C(=N\OCc1ccc(-c2cccc(C(F)(F)F)c2)cc1)c1ccc(CCC(N)(CO)COP(=O)(O)O)cc1` (stereo not drawn): the EC50 is 15.7 nM in data set [1]; 3.5 nM in data set [2]; above 10000 nM in data set [3]; 1240 nM in data set [4]; 5.8 nM in data set [5]. The molecule further gave an ED50 in data set [6] below 1 mg/kg. For the same molecule, in data set [7], the “Heart effect in conscious mice” value is “clean”.

Turning to `C/C(=N\OCc1ccc(-c2ccsc2)cc1)c1ccc(CCC(N)(CO)COP(=O)(O)O)cc1` (stereo not drawn) [Compound 9], the EC50 in data set [1] was 0.79 nM; in data set [2] it was above 10000 nM; in data set [3], above 10000 nM; in data set [4], 4400 nM; in data set [5], above 10000 nM. Also, the 50% effective dose (ED50) in data set [6] stood at 0.08 mg/kg. Further, the “Lymphocyte Depletion ED50” value in data set [6] (IP) is on record as “ED50 ~0.08 mg/kg”. The “Heart effect in conscious mice” value in data set [7] is given as “clean”.

Take `C/C(=N\OCc1ccc(-c2ccccc2)cc1)c1ccc(CCC(N)(CO)COP(=O)(O)O)cc1` (stereo not drawn): the EC50 in data set [1] is 0.86 nM; in data set [2], above 10000 nM; in data set [3], above 10000 nM; in data set [4], 168 nM; in data set [5] it was above 10000 nM. Further, the median effective dose (ED50) in data set [6] was around 0.1 mg/kg. Also, the “Heart effect in conscious mice” value in data set [7] is “clean”.

On to `C/C(=N\OCc1ccc(-c2cccs2)cc1)c1ccc(CCC(N)(CO)COP(=O)(O)O)cc1` (stereo not drawn) [Compound 10, phosphoric acid mono-(2-amino-2-hydroxymethyl-4-{4-[1-(4-thiophen-2-yl-benzyloxy-imino)-ethyl]-phenyl}-butyl)ester], for which the “selectivity for EDG-1 compared to EDG-3, EDG-5, EDG-6 and EDG-8” value in data set [1] (GTP [γ-35S] binding assays) is recorded as “at least 1000 fold”. The EC50 in data set [1] was 1.15 nM; in data set [2] it was above 10000 nM; in data set [3], above 10000 nM; in data set [4], above 10000 nM; in data set [5], above 10000 nM. In data set [6], this molecule showed an ED50 of around 0.2 mg/kg. The “Heart effect in conscious mice” value in data set [7] is “clean”.
